Test results from US9845319B2, “Amide substituted thiazoles as modulators of RORyt” (Janssen Pharmaceutica NV, priority 2014, dated 2017).

Key:
[1] = biological target: T1, human RORγt ligand binding domain (RORγt LBD) (Homo sapiens, UniProt P51449); assay: RORγt ThermoFluor assay; conditions: estimated from thermal shift concentration response
T1 construct: His-tag (N); TurboTEV protease cleavage site (ENLYFQG) (N); made in house; host or cells: E. coli (pHIS1, a modified pET expression vector)
T1 sequence (P51449 with tags, fused parts or gaps): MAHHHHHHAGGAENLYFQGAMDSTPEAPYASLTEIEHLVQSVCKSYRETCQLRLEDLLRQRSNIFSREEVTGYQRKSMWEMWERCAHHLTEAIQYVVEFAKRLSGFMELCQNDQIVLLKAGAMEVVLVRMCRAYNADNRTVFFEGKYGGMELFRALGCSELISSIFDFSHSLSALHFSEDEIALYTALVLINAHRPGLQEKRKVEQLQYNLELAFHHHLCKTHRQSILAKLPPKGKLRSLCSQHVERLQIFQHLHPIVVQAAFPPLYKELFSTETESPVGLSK
In short: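 Thermal shift of RORγt LBD (0.065 mg/mL) with 60 μM 1,8-ANS in 100 mM Hepes pH 7.0, NaCl, GSH, 0.002% Tween-20, heated at 1° C/min. ANS fluorescence tracked versus temperature; ΔTm relative to DMSO wells. Compounds serially diluted 1:2 from 10 mM DMSO stock.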

[2] = biological target: T2, full-length human RORγt (Homo sapiens, UniProt P51449); assay: RORγt (full-length human) Reporter Assay, Conditions A; assay type: cell-based; conditions: for IC50: HEK293T cells, GAL4-DBD-RORγt, luciferase, read-out: RORγt (FL) Reporter Assay A, IC50; for inhibition at 6 µM: read-out: RORγt (FL) Reporter Assay A, % inhibition @ 6 μM, 6 μM compound; for inhibition at 2 µM: read-out: RORγt (FL) Reporter Assay A, % inhibition (* at 2 μM), 2 μM compound concentration (footnote *)
T2 construct: expressed in transfected cells; host or cells: HEK293T, transiently transfected with pCMV-BD-ROR
T2 sequence (P51449 1-497 isoform P51449-2): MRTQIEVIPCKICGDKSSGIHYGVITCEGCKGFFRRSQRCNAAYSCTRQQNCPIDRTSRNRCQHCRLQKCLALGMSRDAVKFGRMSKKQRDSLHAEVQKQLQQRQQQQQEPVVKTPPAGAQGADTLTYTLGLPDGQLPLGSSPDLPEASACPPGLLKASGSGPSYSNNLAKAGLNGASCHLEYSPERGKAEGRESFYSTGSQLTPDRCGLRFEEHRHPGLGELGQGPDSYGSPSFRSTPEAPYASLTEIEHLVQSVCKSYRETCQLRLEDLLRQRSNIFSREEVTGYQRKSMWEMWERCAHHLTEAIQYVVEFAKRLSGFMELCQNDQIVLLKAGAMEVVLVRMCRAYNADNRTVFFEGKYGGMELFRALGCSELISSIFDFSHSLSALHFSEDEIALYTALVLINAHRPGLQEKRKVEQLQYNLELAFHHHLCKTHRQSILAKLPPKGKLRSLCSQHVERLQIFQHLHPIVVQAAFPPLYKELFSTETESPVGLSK
In short: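 Reporter cells lysed after 16–20 h compound exposure; firefly and Renilla luciferase luminescence measured. Firefly signal normalised to DMSO and saturating reference compound, then to Renilla; IC50 from normalised data versus concentration, percent inhibition relative to DMSO.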

| Kd [1] [nM] | IC50 [2] [nM] | inhibition at 6 µM [2] [%] | inhibition at 2 µM [2] [%] | SMILES |
| --- | --- | --- | --- | --- |
| 1.7 | 27 | 110 | – | CC[C@H](NS(=O)(=O)c1ccc(-c2sc(-c3nnc(C(C)(C)O)o3)nc2C(=O)N2CCC(F)(F)CC2)c(C(F)F)c1F)C(F)(F)F [Example 6/3, (S)-3-(Difluoromethyl)-4-(4-(4,4-difluoropiperidine-1-carbonyl)-2-(5-(2-hydroxypropan-2-yl)-1,3,4-oxadiazol-2-yl)thiazol-5-yl)-2-fluoro-N-(1,1,1-trifluorobutan-2-yl)benzenesulfonamide] |
| 1.7 | 51 | – | 104 | CC(C)(O)c1nnc(-c2nc(C(=O)N3CCC(F)(F)CC3)c(-c3ccc(CC(O)(C(F)(F)F)C(F)(F)F)c(Cl)c3Cl)s2)o1 [Example 8/2, (5-(2,3-Dichloro-4-(3,3,3-trifluoro-2-hydroxy-2-(trifluoromethyl)propyl)phenyl)-2-(5-(2-hydroxypropan-2-yl)-1,3,4-oxadiazol-2-yl)thiazol-4-yl)(4,4-difluoropiperidin-1-yl)methanone] |
| 76 | 370 | 104 | – | CC(C)(O)Cc1nnc(-c2nc(C(=O)N3CC[C@H](F)C3)c(-c3ccc(C(O)(C(F)(F)F)C(F)(F)F)c(Cl)c3Cl)s2)o1 [Example 3/6, (S)-(5-(2,3-Dichloro-4-(1,1,1,3,3,3-hexafluoro-2-hydroxypropan-2-yl)phenyl)-2-(5-(2-hydroxy-2-methylpropyl)-1,3,4-oxadiazol-2-yl)thiazol-4-yl)(3-fluoropyrrolidin-1-yl)methanone] |
| 5 | 86 | 107 | – | Cc1c(S(=O)(=O)N[C@@H](C)C(F)(F)F)ccc(-c2sc(-c3nnc(C(C)(C)O)o3)nc2C(=O)N2CCC(F)(F)CC2)c1F [Example 26, 4-(4-(4,4-Difluoropiperidine-1-carbonyl)-2-(5-(2-hydroxypropan-2-yl)-1,3,4-oxadiazol-2-yl)thiazol-5-yl)-3-fluoro-2-methyl-N—((S)-1,1,1-trifluoropropan-2-yl)benzenesulfonamide] |
| 16 | 72 | 110 | – | CCCN(C)C(=O)c1nc(-c2nnc(C(C)(C)O)o2)sc1-c1ccc(S(=O)(=O)N[C@@H](C)C(F)(F)F)c(Cl)c1Cl [Example 6/6, (S)-5-(2,3-Dichloro-4-(N-(1,1,1-trifluoropropan-2-yl)sulfamoyl)phenyl)-2-(5-(2-hydroxypropan-2-yl)-1,3,4-oxadiazol-2-yl)-N-methyl-N-propylthiazole-4-carboxamide] |
| 6.6 | 14 | – | 100 | C[C@H](NS(=O)(=O)c1ccc(-c2sc(-c3cnn[nH]3)nc2C(=O)N2CCCC[C@@H]2C)c(Cl)c1Cl)C(F)(F)F [Example 16, 2,3-Dichloro-4-(4-((S)-2-methylpiperidine-1-carbonyl)-2-(1H-1,2,3-triazol-5-yl)thiazol-5-yl)-N—((S)-1,1,1-trifluoropropan-2-yl)benzenesulfonamide] |
| 45 | 210 | 101 | – | C[C@H](NC(=O)c1cc(-c2sc(-c3nnc(C(C)(C)O)o3)nc2C(=O)N2CCC(F)CC2)cc(C2(C)CC2)c1)C(F)(F)F [Example 6/10, (S)-3-(4-(4-Fluoropiperidine-1-carbonyl)-2-(5-(2-hydroxypropan-2-yl)-1,3,4-oxadiazol-2-yl)thiazol-5-yl)-5-(1-methylcyclopropyl)-N-(1,1,1-trifluoropropan-2-yl)benzamide] |
| 0.6 | 23 | 103 | – | C[C@H](NS(=O)(=O)c1ccc(-c2sc(-c3nnc(C(C)(C)O)o3)nc2C(=O)N2CC(F)(F)C[C@@H]2C)c(Cl)c1Cl)C(F)(F)F [Example 6/5, 2,3-Dichloro-4-(4-((S)-4,4-difluoro-2-methylpyrrolidine-1-carbonyl)-2-(5-(2-hydroxypropan-2-yl)-1,3,4-oxadiazol-2-yl)thiazol-5-yl)-N—((S)-1,1,1-trifluoropropan-2-yl)benzenesulfonamide] |
| 31 | 120 | 103 | – | C[C@H](NS(=O)(=O)c1ccc(-c2sc(-c3noc(C(C)(C)O)n3)nc2C(=O)N2CCC(F)CC2)c(C(F)F)c1F)C(F)(F)F [Example 11/1, (S)-3-(Difluoromethyl)-2-fluoro-4-(4-(4-fluoropiperidine-1-carbonyl)-2-(5-(2-hydroxypropan-2-yl)-1,2,4-oxadiazol-3-yl)thiazol-5-yl)-N-(1,1,1-trifluoropropan-2-yl)benzenesulfonamide] |
| 0.003 | 100 | 104 | – | CC[C@H](NS(=O)(=O)c1ccc(-c2sc(-c3nnc(CC(C)(C)C(=O)O)o3)nc2C(=O)N2CCCC[C@@H]2C)c(Cl)c1Cl)C(F)(F)F [Example 2, 3-(5-(5-(2,3-Dichloro-4-(N—((S)-1,1,1-trifluorobutan-2-yl)sulfamoyl)phenyl)-4-((S)-2-methylpiperidine-1-carbonyl)thiazol-2-yl)-1,3,4-oxadiazol-2-yl)-2,2-dimethylpropanoic acid] |
| 1.7 | 38 | 113 | – | CCN(C(=O)c1nc(-c2nnc(C(C)(C)O)o2)sc1-c1ccc(S(=O)(=O)N[C@@H](C)C(F)(F)F)c(Cl)c1Cl)C(C)C [Example 6/7, (S)-5-(2,3-Dichloro-4-(N-(1,1,1-trifluoropropan-2-yl)sulfamoyl)phenyl)-N-ethyl-2-(5-(2-hydroxypropan-2-yl)-1,3,4-oxadiazol-2-yl)-N-isopropylthiazole-4-carboxamide] |
| 3.3 | 73 | 105 | – | C[C@H](NS(=O)(=O)c1ccc(-c2sc(-c3nnc(C(C)(C)O)o3)nc2C(=O)N2CCC(F)(F)CC2)c(C(F)F)c1Cl)C(F)(F)F [Example 6/14, (S)-2-Chloro-3-(difluoromethyl)-4-(4-(4,4-difluoropiperidine-1-carbonyl)-2-(5-(2-hydroxypropan-2-yl)-1,3,4-oxadiazol-2-yl)thiazol-5-yl)-N-(1,1,1-trifluoropropan-2-yl)benzenesulfonamide] |
| 10 | 27 | 107 | – | CCN(CC)C(=O)c1nc(-c2nnc(CC(C)(C)O)o2)sc1-c1ccc(S(=O)(=O)N[C@@H](C)C(F)(F)F)c(Cl)c1Cl [Example 3/3, (S)-5-(2,3-Dichloro-4-(N-(1,1,1-trifluoropropan-2-yl)sulfamoyl)phenyl)-N,N-diethyl-2-(5-(2-hydroxy-2-methylpropyl)-1,3,4-oxadiazol-2-yl)thiazole-4-carboxamide] |
| 6000 | 2300 | 40 | – | CN(CC(F)(F)F)S(=O)(=O)c1ccc(-c2sc(-c3nnc(C(C)(C)O)o3)nc2C(=O)N2CCC(F)(F)CC2)c(Cl)c1F [Example 6/23, 3-Chloro-4-(4-(4,4-difluoropiperidine-1-carbonyl)-2-(5-(2-hydroxypropan-2-yl)-1,3,4-oxadiazol-2-yl)thiazol-5-yl)-2-fluoro-N-methyl-N-(2,2,2-trifluoroethyl)benzenesulfonamide] |
| 81 | 290 | 103 | – | C[C@H](NS(=O)(=O)c1ccc(-c2sc(-c3nnc(CC(C)(C)O)o3)nc2C(=O)N2CCC(F)(F)CC2)c(OC(F)F)c1F)C(F)(F)F [Example 3/7, (S)-3-(Difluoromethoxy)-4-(4-(4,4-difluoropiperidine-1-carbonyl)-2-(5-(2-hydroxy-2-methylpropyl)-1,3,4-oxadiazol-2-yl)thiazol-5-yl)-2-fluoro-N-(1,1,1-trifluoropropan-2-yl)benzenesulfonamide] |
